Assay results taken from patent US20230174488A1 (priority 2020, published 2023).

Molecular target: SARS-CoV-2 M^PRO (Severe acute respiratory syndrome coronavirus 2, UniProt P0DTD1)
Test: biochemical
Format: biochemical
Details: In vitro potency data; 30 min pre-incubation, 25 nM M^pro, 25 µM substrate; read-out: IC50

With `N#Cc1cc(OC(F)(F)F)ccc1N(C(=O)[C@H](F)Cl)[C@@H](C(=O)NC1CCC(F)(F)CC1)c1cncnc1` (single isomer, unassigned) [INSCoV-517C(4), 2-Chloro-N-(2-cyano-4-(trifluoromethoxy)phenyl)-N-(2-((4,4-difluorocyclohexyl)amino)-2-oxo-1-(pyrimidin-5-yl)ethyl)-2-fluoroacetamide] the IC50 was over 25000 nM.
For `O=C(NC1CCC(F)(F)CC1)C(c1cncnc1)N(C(=O)CCl)c1ccc(-c2ccno2)cc1` (single isomer, unassigned) [INSCoV-600J(2), 2-Chloro-N-(2-((4,4-difluorocyclohexyl)amino)-2-oxo-1-(pyrimidin-5-yl)ethyl)-N-(4-(isoxazol-5-yl)phenyl)acetamide], the IC50 was 530 nM.
Work on `O=C(NC1CCC(F)(F)CC1)C(c1cncnc1)N(C(=O)CCl)c1ccc(-c2cncs2)cc1` (single isomer, unassigned) [INSCoV-600K(2), 2-Chloro-N-(2-((4,4-difluorocyclohexyl)amino)-2-oxo-1-(pyrimidin-5-yl)ethyl)-N-(4-(thiazol-5-yl)phenyl)acetamide] yielded an IC50 of 430 nM.
Compound `O=C(NC1CCC(F)(F)CC1)C(c1cncnc1)N(C(=O)[C@@H]1CO1)c1ccc(-c2cnco2)cc1` (single isomer, unassigned) [INSCoV-600R(2A)] has an IC50 of 2930 nM.
For `O=C(NC1CCC(F)(F)CC1)C(c1cnccn1)N(C(=O)CCl)c1ccc(-c2cncs2)cc1` (single isomer, unassigned) [INSCoV-601G(1), 2-Chloro-N-(2-((4,4-difluorocyclohexyl)amino)-2-oxo-1-(pyrazin-2-yl)ethyl)-N-(4-(thiazol-5-yl)phenyl)acetamide], the IC50 was 60 nM.
`O=C(NC1CCC(F)(F)CC1)C(c1cnccn1)N(C(=O)CCl)c1ccc(-c2cncs2)cc1` (single isomer, unassigned) [INSCoV-601G(2), 2-Chloro-N-(2-((4,4-difluorocyclohexyl)amino)-2-oxo-1-(pyrazin-2-yl)ethyl)-N-(4-(thiazol-5-yl)phenyl)acetamide] gave an IC50 of 270 nM.
For `O=C(NC1CCC(F)(F)CC1)C(c1cnccn1)N(C(=O)CCl)c1ccc(-c2ccns2)cc1` (single isomer, unassigned) [INSCoV-601I(2), 2-chloro-N-(2-((4,4-difluorocyclohexyl)amino)-2-oxo-1-(pyrazin-2-yl)ethyl)-N-(4-(isothiazol-5-yl)phenyl)acetamide], the IC50 was 210 nM.
`CC(C(=O)NC1CCC(F)(F)CC1)(c1cnccn1)N(C(=O)CCl)c1ccc(-c2ccns2)cc1` (single isomer, unassigned) [INSCoV-601N(1), 2-(2-Chloro-N-(4-(isothiazol-5-yl)phenyl)acetamido)-N-(4,4-difluorocyclohexyl)-2-(pyrazin-2-yl)propanamide] gave an IC50 of 130 nM.
Compound `CC(C(=O)NC1CCC(F)(F)CC1)(c1cnccn1)N(C(=O)CCl)c1ccc(-c2ccns2)cc1` (single isomer, unassigned) [INSCoV-601N(2), 2-(2-Chloro-N-(4-(isothiazol-5-yl)phenyl)acetamido)-N-(4,4-difluorocyclohexyl)-2-(pyrazin-2-yl)propanamide] has an IC50 of 3490 nM.
Compound `CC(C(=O)NC1CCC(F)(F)CC1)(c1cncnc1)N(C(=O)CCl)c1ccc(-c2ccno2)cc1` (single isomer, unassigned) [INSCoV-601P(1B), 2-(2-Chloro-N-(4-(isoxazol-5-yl)phenyl)acetamido)-N-(4,4-difluorocyclohexyl)-2-(pyrimidin-5-yl)propanamide] has an IC50 of 13700 nM.
`O=C(N[C@H]1CCC(F)(F)C1)C(c1cncnc1)N(C(=O)CCl)c1ccc(-c2cncs2)cc1` (single isomer, unassigned) [INSCoV-601S(1B)] gave an IC50 of 980 nM.
`O=C(NC1CCC(F)(F)CC1)[C@H](c1cncnc1)N(C(=O)[C@H](F)Cl)c1ccc(-c2cncs2)cc1` (single isomer, unassigned) [INSCoV-614(1A), 2-Chloro-N-(2-((4,4-difluorocyclohexyl)amino)-2-oxo-1-(pyrimidin-5-yl)ethyl)-2-fluoro-N-(4-(thiazol-5-yl)phenyl)acetamide] gave an IC50 of over 25000 nM.
`O=C(NC1CCC(F)(F)CC1)[C@H](c1cncnc1)N(C(=O)[C@H](F)Cl)c1ccc(-c2cncs2)cc1` (single isomer, unassigned) [INSCoV-614(2A), 2-Chloro-N-(2-((4,4-difluorocyclohexyl)amino)-2-oxo-1-(pyrimidin-5-yl)ethyl)-2-fluoro-N-(4-(thiazol-5-yl)phenyl)acetamide] was tested, and the IC50 was 6940 nM.
With `O=C(NC1CCC(F)(F)CC1)[C@H](c1cncnc1)N(C(=O)[C@H](F)Cl)c1ccc(-c2cncs2)cc1` (single isomer, unassigned) [INSCoV-614(2B), 2-Chloro-N-(2-((4,4-difluorocyclohexyl)amino)-2-oxo-1-(pyrimidin-5-yl)ethyl)-2-fluoro-N-(4-(thiazol-5-yl)phenyl)acetamide] the IC50 was 1700 nM.
In the case of `O=C(NC1CCC(F)(F)CC1)[C@@H](c1cncnc1)N(C(=O)[C@H](F)Cl)c1ccc(-c2ccno2)cc1` (single isomer, unassigned) [INSCoV-614A(1A), 2-Chloro-N-(2-((4,4-difluorocyclohexyl)amino)-2-oxo-1-(pyrimidin-5-yl)ethyl)-2-fluoro-N-(4-(isoxazol-5-yl)phenyl)acetamide], the IC50 is reported as 6740 nM.
`O=C(NC1CCC(F)(F)CC1)[C@@H](c1cncnc1)N(C(=O)[C@H](F)Cl)c1ccc(-c2ccno2)cc1` (single isomer, unassigned) [INSCoV-614A(1B), 2-Chloro-N-(2-((4,4-difluorocyclohexyl)amino)-2-oxo-1-(pyrimidin-5-yl)ethyl)-2-fluoro-N-(4-(isoxazol-5-yl)phenyl)acetamide] was tested, and the IC50 was 5050 nM.
For `O=C(NC1CCC(F)(F)CC1)[C@@H](c1cncnc1)N(C(=O)[C@H](F)Cl)c1ccc(-c2ccno2)cc1` (single isomer, unassigned) [INSCoV-614A(2B), 2-Chloro-N-(2-((4,4-difluorocyclohexyl)amino)-2-oxo-1-(pyrimidin-5-yl)ethyl)-2-fluoro-N-(4-(isoxazol-5-yl)phenyl)acetamide], the IC50 was 9110 nM.
`C=CS(=O)(=O)N(c1ccc(C(C)(C)C)cc1)[C@@H](C(=O)NC1CCCCC1)c1cccnc1` [INSCoV-110-1] was tested, and the IC50 was 36000 nM.
`CC(C)(C)c1ccc(N(C(=O)CCl)C(C(=O)NC2CCCCC2)c2cccnc2)cc1` (stereo not drawn) [INSCoV-110A, 2-(4-tert-butyl-N-(2-chloroacetyl)anilino)-N-cyclohexyl-2-(3-pyridyl)acetamide] showed an IC50 of 1140 nM.
In the case of `CC(C)(C)c1ccc(N(C(=O)C=O)C(C(=O)NC2CCCCC2)c2cccnc2)cc1` (stereo not drawn) [INSCoV-110D], the IC50 is reported as over 50000 nM.
For `O=C(NC1CCCCC1)C(c1cncnc1)N(C(=O)CCl)c1ccc(-c2cnco2)cc1` (stereo not drawn) [INSCoV-501A, 2-Chloro-N-(2-(Cyclohexylamino)-2-oxo-1-(Pyrimidin-5-yl)Ethyl)-N-(4-(Oxazol-5-yl)Phenyl)Acetamide], the IC50 was 290 nM.
`O=C(NC1CCS(=O)(=O)CC1)C(c1cncnc1)N(C(=O)CCl)c1ccc(-c2cnco2)cc1` (stereo not drawn) [INSCoV-501B, 2-Chloro-N-(2-((1,1-Dioxidotetrahydro-2H-Thiopyran-4-yl)Amino)-2-Oxo-1-(Pyrimidin-5-yl)Ethyl)-N-(4-(Oxazol-5-yl)Phenyl)Acetamide] showed an IC50 of 600 nM.
`Cc1ccc(S(=O)(=O)CNC(=O)C(c2cncnc2)N(C(=O)CCl)c2ccc(-c3cnco3)cc2)cc1` (stereo not drawn) [INSCoV-501D] showed an IC50 of 2510 nM.
`O=C(NCCc1ccccc1)C(c1cncnc1)N(C(=O)CCl)c1ccc(-c2cnco2)cc1` (stereo not drawn) [INSCoV-501E] was tested, and the IC50 was 600 nM.
`Cc1cc(-c2cnco2)ccc1N(C(=O)CCl)C(C(=O)NC1CCCCC1)c1cncnc1` (stereo not drawn) [INSCoV-501G] was tested, and the IC50 was 260 nM.
`CCS(=O)(=O)N1CCC(NC(=O)C(c2cncnc2)N(C(=O)CCl)c2ccc(-c3cnco3)cc2)CC1` (stereo not drawn) [INSCoV-501H(1)] was tested, and the IC50 was 630 nM.
In the case of `O=C(NC1CCN(S(=O)(=O)C2CC2)CC1)C(c1cncnc1)N(C(=O)CCl)c1ccc(-c2cnco2)cc1` (stereo not drawn) [INSCoV-501H], the IC50 is reported as 720 nM.
For `O=C(NC1CCC(F)(F)CC1)C(c1cncnc1)N(C(=O)CCl)c1ccc(-c2cnco2)cc1` (stereo not drawn) [INSCoV-501I, 2-Chloro-N-(2-((4,4-difluorocyclohexyl)amino)-2-oxo-1-(pyrimidin-5-yl)ethyl)-N-(4-(oxazol-5-yl)phenyl)acetamide], the IC50 was 390 nM.
Compound `O=C(NC1CCCCC1)C(c1cnccn1)N(C(=O)CCl)c1ccc(-c2cnco2)cc1` (stereo not drawn) [INSCoV-501L] has an IC50 of 400 nM.
Work on `O=C(NC1CCS(=O)(=O)CC1)C(c1cnccn1)N(C(=O)CCl)c1ccc(-c2cnco2)cc1` (stereo not drawn) [INSCoV-501M, 2-Chloro-N-(2-((1,1-Dioxidotetrahydro-2H-Thiopyran-4-yl)Amino)-2-Oxo-1-(Pyrazin-2-yl)Ethyl)-N-(4-(Oxazol-5-yl)Phenyl)Acetamide] yielded an IC50 of 450 nM.
`Cc1ccc(S(=O)(=O)CNC(=O)C(c2cnccn2)N(C(=O)CCl)c2ccc(-c3cnco3)cc2)cc1` (stereo not drawn) [INSCoV-501O, 2-Chloro-N-(4-(Oxazol-5-yl)Phenyl)-N-(2-Oxo-1-(Pyrazin-2-yl)-2-((Tosylmethyl)Amino)Ethyl)Acetamide] gave an IC50 of 1500 nM.
`O=C(NCCc1ccccc1)C(c1cnccn1)N(C(=O)CCl)c1ccc(-c2cnco2)cc1` (stereo not drawn) [INSCoV-501P, 2-Chloro-N-(4-(Oxazol-5-vl)Phenyl)-N-(2-Oxo-2-(Phenethylamino)-1-(Pyrazin-2-yl)Ethyl)Acetamide] gave an IC50 of 560 nM.
For `CCS(=O)(=O)N1CCC(NC(=O)C(c2cnccn2)N(C(=O)CCl)c2ccc(-c3cnco3)cc2)CC1` (stereo not drawn) [INSCoV-501R(1), 2-Chloro-N-(2-((1-(Ethylsulfonyl)Piperidin-4-yl)Amino)-2-Oxo-1-(Pyrazin-2-yl)Ethyl)-N-(4-(Oxazol-5-yl)Phenyl)Acetamide], the IC50 was 570 nM.
With `O=C(NC1CCN(S(=O)(=O)C2CC2)CC1)C(c1cnccn1)N(C(=O)CCl)c1ccc(-c2cnco2)cc1` (stereo not drawn) [INSCoV-501R, 2-Chloro-N-(2-((1-(Cyclopropylsulfonyl)Piperidin-4-yl)Amino)-2-Oxo-1-(Pyrazin-2-yl)Ethyl)-N-(4-(Oxazol-5-yl)Phenyl)Acetamide] the IC50 was 480 nM.
In the case of `O=C(NC1CCC(F)(F)CC1)C(c1cnccn1)N(C(=O)CCl)c1ccc(-c2cnco2)cc1` (stereo not drawn) [INSCoV-501S, 2-Chloro-N-(2-((4,4-Difluorocyclohexyl)Amino)-2-Oxo-1-(Pyrazin-2-yl)Ethyl)-N-(4-(Oxazol-5-yl)Phenyl)Acetamide], the IC50 is reported as 240 nM.
With `O=C(NC1CCCCC1)C(c1cccnc1)N(C(=O)CCl)c1ccc(-c2cnco2)cc1` (stereo not drawn) [INSCoV-501] the IC50 was 680 nM.
